Experimental data reported in publication PMC6753678, “Fueling Open Innovation for Malaria Transmission-Blocking Drugs: Hundreds of Molecules Targeting Early Parasite Mosquito Stages” (Frontiers in Microbiology, 2019).
Like-named read-outs stand apart in the source and are kept apart here.

Experiments:
[1] = test system: P. berghei ookinete development; conditions: for % inhibition, Replicate A / % inhibition, Replicate B: primary screen at 1 μM
[2] = test system: 3D7-strain P. falciparum asexual parasites; test: P. falciparum asexual growth inhibition assay (Pf GIA); type: cell-based, Plasmodium falciparum; conditions: dose response confirmation; read-out: Pf asexual growth inhibition assays IC50
In short: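 LDH readout: absorbance at 650 nm after 10 min at room temperature with lactate/APAD/NBT/diaphorase mix on thawed plates. Cultures (0.25% parasitemia, 2% hematocrit) were treated 72 h at 37°C in low-oxygen gas. Inhibition was normalised to 50 μM chloroquine and DMSO; n=3 biological replicates.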

HepG2 cells = test: HepG2 cytotoxicity assay; conditions: for IC50: read-out: HepG2 cytotoxicity assay IC50, dose response confirmation; for Pb ODA (this manuscript) HepG2 cytoxicity: HepG2 cytotoxicity listed with the Pb ODA data set (this manuscript)
In short: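 HepG2 cells, 2,500 per well in MEM with 10% FBS and 1% NEAA, exposed to compounds for 48 h at 37°C, 5% CO2. Viability read by fluorescence; percent inhibition relative to 50 μM doxorubicin and DMSO controls.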

[3] = read-out: Pb ODA IC50, this manuscript
[4] = read-out: Pb Ookinete development assay IC50, dose response confirmation
[5] = unified HepG2 value across the three screens
[6] = read-out: Pb ODA (this manuscript) IC50, P. berghei ookinete development assay, this manuscript
[7] = HepG2 values of the three screens unified
[8] = read-out: Pb Ookinete development assay IC50

SMILES	Is compound selective in assay? Pb ODA active? ([1]; 1: YES, 0: NO)	% inhibition, Replicate A [1] [%]	% inhibition, Replicate B [1] [%]	IC50 [1, 3] [nM]	IC50 [1, 4] [nM]	IC50 [2] [nM]	IC50 (HepG2 cells) [nM]	Unified cytotox (HepG2 cells; [5]) [µM]	Is compound selective in assay? Pb ODA active? [1]	IC50 [1, 6] [nM]	Pb ODA (this manuscript) HepG2 cytoxicity (HepG2 cells) [µM]	HepG2 cytoxicity (Pb ODA, this manuscript) (HepG2 cells) [µM]	Unified cytotox (HepG2 cells; [7]) [µM]	IC50 ([1]; read-out: Pb ODA IC50) [nM]	IC50 [1, 8] [nM]
Cc1cc(=O)c2cc(-c3ccc(OC(F)(F)F)cc3)ccc2[nH]1 [TCMDC-137042]	1 (1: YES)	37.82	64.25	6380	6380	2190	100000	100.00	–	–	–	–	–	–	–
Cl.c1ccc(Oc2ccc(Nc3nncc4ccccc34)cc2)cc1 [TCMDC-137229]	1 (1: YES)	75.48	62.89	690	692	544	100000	100.00	–	–	–	–	–	–	–
Cc1c(Cc2ccccc2Br)cnc2nc(N)nc(N)c12.Cl [TCMDC-137244]	–	44.00	63.36	–	8490	4	7.76	–	0 (key: 1: YES; 0: NO)	8490	0.00776	–	–	–	–
Cc1cc(=O)c(-c2ccc(Oc3cccc(Cl)c3)cc2)c(C)[nH]1 [TCMDC-137265]	0 (0: NO)	110.80	102.47	1280	1280	1850	3720	–	–	–	–	3.72	3.72	–	–
Cc1cc(=O)c(-c2ccc(Oc3cccc(OC(F)(F)F)c3)cc2)c(C)[nH]1 [TCMDC-137266]	–	74.10	97.06	–	205	99	10700	–	1 (key: 1: YES; 0: NO)	200	10.72	–	–	–	–
CCCCCCCCCc1c(C)[nH]c2ccccc2c1=O [TCMDC-137268]	–	77.84	91.25	–	386	168	67600	–	1 (key: 1: YES; 0: NO)	390	67.61	–	–	–	–
CCCCCCCc1c(C)[nH]c2ccc(F)cc2c1=O [TCMDC-137269]	–	57.79	78.85	–	319	208	100000	–	1 (key: 1: YES; 0: NO)	320	100.00	–	–	–	–
CCC(CC)n1c(C)cc2c3c(N)nc(N)nc3ccc21 [TCMDC-137283]	0 (0: NO)	93.53	103.53	850	846	< 0.2	1.7	–	–	–	–	0.0017	0.0017	–	–
CCN(CC)S(=O)(=O)n1ncc2c3c(N)nc(N)nc3ccc21.Cl [TCMDC-137302]	–	53.62	57.06	–	2000	79	53.1	–	0 (key: 1: YES; 0: NO)	–	0.0531	–	–	–	–
CCc1cc2c3c(N)nc(N)nc3ccc2n1C(C)(C)C [TCMDC-137306]	0 (0: NO)	81.63	92.90	1080	1080	3.2	1.7	–	–	–	–	0.0017	0.0017	–	–
CCC(C)(C)n1c(C)cc2c3c(N)nc(N)nc3ccc21 [TCMDC-137307]	–	47.56	73.34	–	–	0.9	1.69	–	–	–	–	0.00169	0.00169	1190	1190
CCc1cc2c3c(N)nc(N)nc3ccc2n1C(C)CC (stereo not shown) [TCMDC-137308]	0 (0: NO)	67.31	61.54	690	694	< 0.2	1.7	–	–	–	–	0.0017	0.0017	–	–
CCCc1cc2c3c(N)nc(N)nc3ccc2n1C(CC)CC [TCMDC-137312]	0 (0: NO)	47.03	71.34	460	463	< 0.2	1.7	–	–	–	–	0.0017	0.0017	–	–
CCC(CC)n1c(COC)cc2c3c(N)nc(N)nc3ccc21 [TCMDC-137313]	0 (0: NO)	74.51	66.56	1350	1350	< 0.2	1.7	–	–	–	–	0.0017	0.0017	–	–
COc1cc(Cn2ccc3c4c(N)nc(N)nc4ccc32)cc(OC)c1OC [TCMDC-137341]	–	61.35	58.11	–	–	< 0.3	1.7	–	–	–	–	0.0017	0.0017	560	556
CNCCN(C)C(=O)Oc1c(Br)c(C)nc(C)c1-c1ccc(Oc2ccc(OC(F)(F)F)cc2)cc1.Cl [TCMDC-137377]	–	132.58	124.21	–	1480	71	8320	–	0 (key: 1: YES; 0: NO)	1480	8.32	–	–	–	–
Cc1[nH]c(C)c(-c2ccc(Oc3ccc(Cl)cc3)cc2)c(=O)c1C [TCMDC-137378]	1 (1: YES)	87.44	100.49	640	636	< 0.2	8610	–	–	–	–	8.61	8.61	–	–
Cc1nc(C)c(-c2ccc(Oc3ccc(OC(F)(F)F)cc3)cc2)c(OC(=O)c2ccccc2)c1Cl [TCMDC-137380]	–	56.36	103.63	–	860	173	37600	–	1 (key: 1: YES; 0: NO)	–	37.58	–	–	–	–
CC(=O)Oc1c(Cl)c(C)nc(C)c1-c1ccc(Oc2ccc(Cl)cc2)cc1 [TCMDC-137381]	–	96.93	129.91	–	98	34	2630	–	1 (key: 1: YES; 0: NO)	100	2.63	–	–	–	–
